Results taken from patent US12612386B2, “Heteroaryl-triazole compounds as pesticides” (Bayer Aktiengesellschaft, priority 2020, dated 2026).

Columns and labels:
Assay type in all cases: in vivo
[1] = tested on: cattle tick larvae (Rhipicephalus microplus), strain Parkhurst, resistant against synthetic pyrethroids; assay: Rhipicephalus (Boophilus) microplus in-vitro contact test, larval cattle tick; settings: 5 μg/cm^2 (=500 g/ha), after 48 hours
Procedure, shortened: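 Efficacy is read at 48 h from negative geotactic behaviour after larvae are patted to the tube bottom, expressed as percentage dead or moribund. Larvae (20-50) sit in glass tubes whose walls carry an evaporated acetone film of compound (900 ppm corresponds to 5 μg/cm^2), kept at 27° C., 85% relative humidity.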

[2] = tested on: adult cat fleas (Ctenocephalides felis); assay: Ctenocephalides felis in-vitro contact test, adult cat flea; settings: 5 μg/cm^2 (=500 g/ha), after 48 hours
Description: Ctenocephalides felis—In-Vitro Contact Tests Adult Cat Flea
(§1) 9 mg compound is solved in 1 mL acetone and diluted with acetone to the desired concentration. 250 μL of the test solution is filled in 25 mL glass test tubes and homogeneously distributed on the inner walls by rotation and tilting on a shaking device (2 h at 30 rpm). With a compound concentration of 900 ppm, an inner surface of 44.7 cm^2 and a homogeneous distribution, a dose of 5 μg/cm^2 is achieved.
(§2) After the solvent has evaporated, each test tube is filled with 5-10 adult cat fleas (Ctenocephalides felis), closed with a perforated lid and incubated in a lying position at room temperature and relative humidity. After 48 hours efficacy is determined. The fleas are patted on the ground of the tubes and are incubated on a heating plate at 45-50° C. for at most 5 minutes. Immotile or uncoordinated moving fleas, which are not able to escape the heat by climbing upwards, are marked as dead or moribund.
An efficacy of 100% means all fleas are dead or moribund; 0% means no fleas are dead or moribund.

[3] = tested on: adult brown dog ticks (Rhipicephalus sanguineus); assay: Rhipicephalus sanguineus in-vitro contact test, adult brown dog ticks; settings: 48 h, read-out: efficacy (ticks dead or moribund)
Description: Rhipicephalus sanguineus—In-Vitro Contact Tests with Adult Brown Dog Ticks
as §1
as §2, with “brown dog ticks (Rhipicephalus sanguineus),” for “cat fleas (Ctenocephalides felis),”, “ticks” for “fleas”, “ticks,” for “fleas,”
An efficacy of 100% means all ticks are dead or moribund; 0% means no ticks are dead or moribund.

[4] = tested on: larvae of the banded cucumber beetle (Diabrotica balteata); assay: Diabrotica balteata spray test; settings: 168 h, 100 g/ha (=32 μg/well), after 7 days, read-out: efficacy (seedling growth)
Procedure, shortened: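 Germinated wheat seeds on agar (5 per well) were sprayed with compound formulated in acetone/DMF and diluted in water with 1000 ppm emulsifier. Each unit was then infested with 10–20 larvae. Efficacy % was scored after 7 days as seedling growth relative to an untreated, uninfested control (100% = normal growth).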

[5] = tested on: green peach aphid (Myzus persicae); assay: Myzus persicae spray test (MYZUPE); settings: 120 h; for mortality at 100 g/ha: after 5 days
Procedure, shortened: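 Chinese cabbage leaf disks infested with all instars of Myzus persicae were sprayed with compound formulated in acetone/dimethylformamide and diluted in water with 1000 ppm alkylarylpolyglycol ether emulsifier. Percent mortality was scored after 5 days, 100% meaning all aphids killed.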

[6] = tested on: larvae of the southern green stink bug (Nezara viridula); assay: whole plant or invertebrate; settings: 96 h
Procedure, shortened: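 Compound in acetone/DMF was diluted in water with 1000 ppm alkylarylpolyglycol ether emulsifier. Barley plants were sprayed with it, then infested with Nezara viridula larvae. Mortality % was scored after 4 days (100% = all killed).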

[7] = tested on: fall armyworm larvae (Spodoptera frugiperda); assay: whole plant or invertebrate; settings: 168 h
Procedure, shortened: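 Maize leaf sections sprayed with compound in acetone/DMF with alkylarylpolyglycol ether emulsifier diluted in water, then infested with fall armyworm larvae once dry. Mortality (%) scored after 7 days; 100% = all caterpillars killed.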

[8] = tested on: adult mosquitoes Aedes aegypti strain MONHEIM; assay: Aedes aegypti test (AEDSAE surface treatment & contact assay); settings: 24 hours after contact, read-out: efficacy (mortality); for mortality at 4 mg/m2: surface concentration 4 mg/m^2, 30 min exposure; for mortality at 20 mg/m2: surface concentration 20 mg/m^2, 30 min exposure
Procedure, shortened: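 Compound in acetone containing 2000 ppm rapeseed oil methyl ester applied to a glazed tile and dried; adult mosquitoes exposed on the treated surface for 30 minutes. Percent mortality scored 24 hours after contact (100% = all dead, 0% = none dead).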

[9] = tested on: adult mosquitoes Culex quinquefasciatus strain P00; assay: Culex quinquefasciatus test (CULXFA surface treatment & contact assay); settings: 24 hours after contact, read-out: efficacy (mortality); for mortality at 4 mg/m2: surface concentration 4 mg/m^2, 30 min exposure; for mortality at 20 mg/m2: surface concentration 20 mg/m^2, 30 min exposure
Description: Culex quinquefasciatus Test (CULXFA Surface Treatment & Contact Assay)
(§3) Solvent: Aceton+2000 ppm rapeseed oil methyl ester (RME)
(§4) This solution is pipetted onto a glazed tile and after evaporation of the acetone, adult mosquitoes of the species Culex quinquefasciatus strain P00 are placed onto the dried surface. The exposure time is 30 minutes. Mortality in percent (%) is determined 24 hours after contact of the insects to the treated surface. 100% mortality means that all tested insects are dead, whereas 0% means that no insect died.

[10] = tested on: adult flies Musca domestica strain WHO-N; assay: Musca domestica test (MUSCDO surface treatment & contact assay); settings: 24 hours after contact, read-out: efficacy (mortality); for mortality at 4 mg/m2: surface concentration 4 mg/m^2, 30 min exposure; for mortality at 20 mg/m2: surface concentration 20 mg/m^2, 30 min exposure
Description: Musca domestica Test (MUSCDO Surface Treatment & Contact Assay)
as §3
as §4, with “flies” for “mosquitoes”, “Musca domestica” for “Culex quinquefasciatus”, “WHO-N” for “P00”

[11] = tested on: adult animals Blattella germanica strain PAULINIA; assay: Blattella germanica test (BLTTGE surface treatment & contact assay); settings: 24 hours after contact, read-out: efficacy (mortality); for mortality at 20 mg/m2: surface concentration 20 mg/m^2, 30 min exposure
Description: Blattella germanica Test (BLTTGE Surface Treatment & Contact Assay)
as §3
In order to produce a sufficient, active ingredient containing solution it is necessary to solve the test compound in the solvent-mix (acetone at 2 mg/ml/RME 2000 ppm). This solution is pipetted onto a glazed tile and after evaporation of the acetone, adult animals of the species Blattella germanica strain PAULINIA are placed onto the dried surface. The exposure time is 30 minutes.
Mortality in percent (%) is determined 24 hours after contact of the insects to the treated surface. 100% mortality means that all tested insects are dead, whereas 0% means that no insect died.

[12] = tested on: brown planthopper (Nilaparvata lugens); assay: Nilaparvata lugens spray test; settings: 96 h
Procedure, shortened: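 Rice plants (Oryza sativa) sprayed with compound formulated in acetone/DMF with alkylarylpolyglycol ether emulsifier (1000 ppm in diluting water), then infested with planthoppers. Mortality (%) scored after 4 days; 100% = all insects killed, 0% = none killed.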

Structure (SMILES)	efficacy (larvae dead or moribund) [1] [%]	efficacy (fleas dead or moribund) [2] [%]	pest or weed control at 32 µg/disc, 100 g/ha [4] [%]	mortality at 100 g/ha [5] [%]	mortality at 500 g/ha [6] [%]	mortality at 100 g/ha [7] [%]	mortality at 4 mg/m2 [8] [%]	mortality at 20 mg/m2 [8] [%]	mortality at 4 mg/m2 [9] [%]	mortality at 4 mg/m2 [10] [%]	mortality at 20 mg/m2 [10] [%]	mortality at 20 mg/m2 [11] [%]	mortality at 500 g/ha [12] [%]	mortality at 20 mg/m2 [9] [%]	also measured
C[C@H](NC(=O)c1cc(Br)cc(OC(F)(F)F)c1)c1ncnn1-c1cc(C(N)=O)ncn1 [I-21]	100	100	100	90	100	100	80 to 100	80 to 100	80 to 100	80 to 100	80 to 100	80 to 100			pest or weed control at 5 µg/cm2, 500 g/ha [3]: 100%; mortality at 100 g/ha [6]: 100%; mortality at 4 mg/m2 ([11]; surface concentration 4 mg/m^2, 30 min exposure): 80 to 100%
CC(NC(=O)c1cc(OC(F)(F)F)cc(C2CC2)c1)c1ncnn1-c1cc(C#N)ncn1 (stereo not shown) [I-8, N-{1-[1-(6-cyanopyrimidin-4-yl)-1H-1,2,4-triazol-5-yl]ethyl}-3-cyclopropyl-5-(trifluoromethoxy)benzamide]	100		100	90		100	80 to 100	80 to 100			80 to 100		100		
CNC(=O)c1cc(-n2ncnc2[C@H](C)NC(=O)c2cc(OC(F)(F)F)cc(S(=O)(=O)C(F)(F)F)c2)ncn1 [I-90]			100	100	100	100	80 to 100	80 to 100	80 to 100	80 to 100	80 to 100	80 to 100	90	80 to 100	
C[C@H](NC(=O)c1cc(OC(F)(F)F)cc(C2CC2)c1)c1ncnn1-c1cc(C#N)ncn1 [I-10]	100		100			100	80 to 100	80 to 100			80 to 100				
CNC(=O)c1cc(-n2ncnc2[C@H](C)NC(=O)c2cc(Cl)cc(S(=O)(=O)C(F)(F)F)c2)ncn1 [I-86]			100	100	100	100	80 to 100	80 to 100			80 to 100				Emax at 4 g/ha ([5]; MYZUPE, 4 g ai/ha, 5 dat (Table 4), read-out: % Efficacy): 100%; Emax at 20 g/ha ([5]; MYZUPE, 20 g ai/ha, 5 dat (Table 4), read-out: % Efficacy): 100%; Emax at 100 g/ha ([5]; MYZUPE, 100 g ai/ha, 5 dat (Table 4), read-out: % Efficacy): 100%; Emax at 20 g/ha ([7]; SPODFR, 20 g ai/ha, 7 dat (Table 4), read-out: % Efficacy): 100%; Emax at 100 g/ha ([7]; SPODFR, 100 g ai/ha, 7 dat (Table 4), read-out: % Efficacy): 100%
C[C@H](NC(=O)c1cc(OC(F)(F)F)cc(C2(C#N)CC2)c1)c1nc(C2CC2)nn1-c1cc(C(N)=O)ncn1 [I-33]	100	100	100			100	80 to 100	80 to 100	80 to 100	80 to 100	80 to 100		100	80 to 100	
